Test results reported in patent US8518945B2, “Pyrrolopyrazine kinase inhibitors” (Hoffmann-La Roche Inc., priority 2010, dated 2013).

Target: T1, h-jak3(810-1124) (JAK3: Recombinant human kinase domain) (Homo sapiens, UniProt P52333)
T1 construct: jak3(810- 1124)-sf9-c; made in house; host or cells: Sf9
Assay: Determination of IC50 of Janus Kinase (JAK) inhibition: JAK3 radioactive end-point 33P-ATP kinase assay
Assay type: biochemical
Conditions: no additive; ATP 1.5 uM, peptide 50 uM, 20 minutes, room temperature; read-out: Ic50 h-jak3(810-1124)-sf9-c: no additive

T1 sequence (P52333 810-1124): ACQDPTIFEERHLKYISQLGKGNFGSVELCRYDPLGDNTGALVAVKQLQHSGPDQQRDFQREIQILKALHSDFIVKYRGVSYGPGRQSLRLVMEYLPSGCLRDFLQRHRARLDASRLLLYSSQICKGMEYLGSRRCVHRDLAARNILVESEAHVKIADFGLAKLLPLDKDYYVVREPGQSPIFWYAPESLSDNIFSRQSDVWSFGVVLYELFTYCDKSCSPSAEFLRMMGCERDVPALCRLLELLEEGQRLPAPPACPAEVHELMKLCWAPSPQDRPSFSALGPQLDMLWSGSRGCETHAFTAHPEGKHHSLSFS

Structure (SMILES) | IC50
CCn1cc(-c2cnc3[nH]cc(C(=O)N[C@@H](C(=O)N4CCC(C)(O)CC4)C(C)(C)C)c3n2)cn1 [Example I-140, 2-(1-Ethyl-1H-pyrazol-4-yl)-5H-pyrrolo[2,3-b]pyrazine-7-carboxylic acid [(R)-1-(4-hydroxy-4-methyl-piperidine-1-carbonyl)-2,2-dimethyl-propyl]-amide] | 0.68 nM
Cn1cc(-c2cnc3[nH]cc(C(=O)N[C@@H](C(=O)N4CC(C)(C#N)C4)C4CC4)c3n2)cn1 [Example I-142, 2-(1-Methyl-1H-pyrazol-4-yl)-5H-pyrrolo[2,3-b]pyrazine-7-carboxylic acid [(R)-2-(3-cyano-3-methyl-azetidin-1-yl)-1-cyclopropyl-2-oxo-ethyl]-amide] | 0.47 nM
Cn1cc(-c2cnc3[nH]cc(C(=O)N[C@@H](C(=O)N4CC(C)(C#N)C4)C(C)(C)C)c3n2)cn1 [Example I-143, 2-(1-Methyl-1H-pyrazol-4-yl)-5H-pyrrolo[2,3-b]pyrazine-7-carboxylic acid [(R)-1-(3-cyano-3-methyl-azetidine-1-carbonyl)-2,2-dimethyl-propyl]-amide] | 0.42 nM
CCn1cc(-c2cnc3[nH]cc(C(=O)N[C@@H](C(=O)N4CCC(F)(F)CC4)C4CC4)c3n2)cn1 [Example I-144, 2-(1-Ethyl-1H-pyrazol-4-yl)-5H-pyrrolo[2,3-b]pyrazine-7-carboxylic acid [(R)-1-cyclopropyl-2-(4,4-difluoro-piperidin-1-yl)-2-oxo-ethyl]-amide] | 0.62 nM
CC(C)(C)c1ccnc(-c2cnc3[nH]cc(C(=O)N[C@@H](C(=O)N4CCC(C#N)CC4)C4CC4)c3n2)c1 [Example I-145, 2-(4-tert-Butyl-pyridin-2-yl)-5H-pyrrolo[2,3-b]pyrazine-7-carboxylic acid [(R)-2-(4-cyano-piperidin-1-yl)-1-cyclopropyl-2-oxo-ethyl]-amide] | 15.2 nM
CCn1cc(-c2cnc3[nH]cc(C(=O)N[C@@H](C(=O)N4CCC(O)(C(F)(F)F)CC4)C4CC4)c3n2)cn1 [Example I-146, 2-(1-Ethyl-1H-pyrazol-4-yl)-5H-pyrrolo[2,3-b]pyrazine-7-carboxylic acid [(R)-1-cyclopropyl-2-(4-hydroxy-4-trifluoromethyl-piperidin-1-yl)-2-oxo-ethyl]-amide] | 0.38 nM
N#CC1CCN(C(=O)[C@H](NC(=O)c2c[nH]c3ncc(-c4cc(-c5ccccc5)ccn4)nc23)C2CC2)CC1 [Example I-147, 2-(4-Phenyl-pyridin-2-yl)-5H-pyrrolo[2,3-b]pyrazine-7-carboxylic acid [(R)-2-(4-cyano-piperidin-1-yl)-1-cyclopropyl-2-oxo-ethyl]-amide] | 4.46 nM
CCn1cc(-c2cnc3[nH]cc(C(=O)N[C@@H](C(=O)N4CC(C)(O)C4)C4CC4)c3n2)cn1 [Example I-148, 2-(1-Ethyl-1H-pyrazol-4-yl)-5H-pyrrolo[2,3-b]pyrazine-7-carboxylic acid [(R)-1-cyclopropyl-2-(3-hydroxy-3-methyl-azetidin-1-yl)-2-oxo-ethyl]-amide] | 1.98 nM
CC[C@@H](C)[C@@H](NC(=O)c1c[nH]c2ncc(C3CC3)nc12)C(=O)N1CCC(C#N)CC1 [Example I-149, 2-Cyclopropyl-5H-pyrrolo[2,3-b]pyrazine-7-carboxylic acid [(1R,2R)-1-(4-cyano-piperidine-1-carbonyl)-2-methyl-butyl]-amide] | 1.27 nM
Cn1cc(-c2cnc3[nH]cc(C(=O)N[C@@H](C(=O)N4CC(F)(F)C4)C4CC4)c3n2)cn1 [Example I-150, 2-(1-Methyl-1H-pyrazol-4-yl)-5H-pyrrolo[2,3-b]pyrazine-7-carboxylic acid [(R)-1-cyclopropyl-2-(3,3-difluoro-azetidin-1-yl)-2-oxo-ethyl]-amide] | 2 nM
CCC1(C#N)CN(C(=O)[C@H](NC(=O)c2c[nH]c3ncc(-c4cnn(C)c4)nc23)C2CC2)C1 [Example I-151, 2-(1-Methyl-1H-pyrazol-4-yl)-5H-pyrrolo[2,3-b]pyrazine-7-carboxylic acid [(R)-2-(3-cyano-3-ethyl-azetidin-1-yl)-1-cyclopropyl-2-oxo-ethyl]-amide] | ≤ 0.32 nM
C[C@@H](NC(=O)c1c[nH]c2ncc(-c3cc(-n4cccn4)ccn3)nc12)C(=O)N1CC(C#N)C1 [Example I-152, 2-(4-Pyrazol-1-yl-pyridin-2-yl)-5H-pyrrolo[2,3-b]pyrazine-7-carboxylic acid [(R)-2-(3-cyano-azetidin-1-yl)-1-methyl-2-oxo-ethyl]-amide] | 9.52 nM
C[C@@H](NC(=O)c1c[nH]c2ncc(-c3cc(-n4cccc4)ccn3)nc12)C(=O)N1CC(C#N)C1 [Example I-153, 2-(4-Pyrrol-1-yl-pyridin-2-yl)-5H-pyrrolo[2,3-b]pyrazine-7-carboxylic acid [(R)-2-(3-cyano-azetidin-1-yl)-1-methyl-2-oxo-ethyl]-amide] | 9.02 nM
N#CC1CCN(C(=O)[C@H](NC(=O)c2c[nH]c3ncc(-c4cc(-c5cccs5)ccn4)nc23)C2CC2)CC1 [Example I-154, 2-(4-Thiophen-2-yl-pyridin-2-yl)-5H-pyrrolo[2,3-b]pyrazine-7-carboxylic acid [(R)-2-(4-cyano-piperidin-1-yl)-1-cyclopropyl-2-oxo-ethyl]-amide] | 3.06 nM

Second part, the compound after the results:

IC50 | Structure (SMILES)
10.5 nM | CNC(=O)c1ccnc(-c2cnc3[nH]cc(C(=O)N[C@H](C)C(=O)N4CC(C#N)C4)c3n2)c1 [Example I-155, 2-(4-Methylcarbamoyl-pyridin-2-yl)-5H-pyrrolo[2,3-b]pyrazine-7-carboxylic acid [(R)-2-(3-cyano-azetidin-1-yl)-1-methyl-2-oxo-ethyl]-amide]
5.97 nM | CC(C)(C)[C@@H](NC(=O)c1c[nH]c2ncc(-c3cnc(Cl)s3)nc12)C(=O)N1CCC(C#N)CC1 [Example I-156, 2-(2-Chloro-thiazol-5-yl)-5H-pyrrolo[2,3-b]pyrazine-7-carboxylic acid [(R)-1-(4-cyano-piperidine-1-carbonyl)-2,2-dimethyl-propyl]-amide]
3.28 nM | Cc1nc(-c2cnc3[nH]cc(C(=O)N[C@@H](C(=O)N4CC(C#N)C4)C(C)(C)C)c3n2)cn1-c1cc(F)cc(F)c1 [Example I-157, 2-[1-(3,5-Difluoro-phenyl)-2-methyl-1H-imidazol-4-yl]-5H-pyrrolo[2,3-b]pyrazine-7-carboxylic acid [(R)-1-(3-cyano-azetidine-1-carbonyl)-2,2-dimethyl-propyl]-amide]
2.34 nM | Cc1nc(-c2cnc3[nH]cc(C(=O)N[C@@H](C(=O)N4CC(C#N)C4)C(C)(C)C)c3n2)cn1-c1cccc(F)c1 [Example I-158, 2-[1-(3-Fluoro-phenyl)-2-methyl-1H-imidazol-4-yl]-5H-pyrrolo[2,3-b]pyrazine-7-carboxylic acid [(R)-1-(3-cyano-azetidine-1-carbonyl)-2,2-dimethyl-propyl]-amide]
2.66 nM | Cc1nc(-c2cnc3[nH]cc(C(=O)N[C@@H](C(=O)N4CC(C#N)C4)C4CC4)c3n2)cn1-c1ccccc1 [Example I-159, 2-(2-Methyl-1-phenyl-1H-imidazol-4-yl)-5H-pyrrolo[2,3-b]pyrazine-7-carboxylic acid [(R)-2-(3-cyano-azetidin-1-yl)-1-cyclopropyl-2-oxo-ethyl]-amide]
0.38 nM | N#CC1CN(C(=O)[C@H](NC(=O)c2c[nH]c3ncc(-c4ccc(C(F)(F)F)cc4)nc23)C2CC2)C1 [Example I-160, 2-(4-Trifluoromethyl-phenyl)-5H-pyrrolo[2,3-b]pyrazine-7-carboxylic acid [(R)-2-(3-cyano-azetidin-1-yl)-1-cyclopropyl-2-oxo-ethyl]-amide]
